Where a name gives a salt, the structure may show the parent alone.

proton, potassium-adenosine triphosphatase (H^+,K^+-ATPase), sequence (P19156 2-1034): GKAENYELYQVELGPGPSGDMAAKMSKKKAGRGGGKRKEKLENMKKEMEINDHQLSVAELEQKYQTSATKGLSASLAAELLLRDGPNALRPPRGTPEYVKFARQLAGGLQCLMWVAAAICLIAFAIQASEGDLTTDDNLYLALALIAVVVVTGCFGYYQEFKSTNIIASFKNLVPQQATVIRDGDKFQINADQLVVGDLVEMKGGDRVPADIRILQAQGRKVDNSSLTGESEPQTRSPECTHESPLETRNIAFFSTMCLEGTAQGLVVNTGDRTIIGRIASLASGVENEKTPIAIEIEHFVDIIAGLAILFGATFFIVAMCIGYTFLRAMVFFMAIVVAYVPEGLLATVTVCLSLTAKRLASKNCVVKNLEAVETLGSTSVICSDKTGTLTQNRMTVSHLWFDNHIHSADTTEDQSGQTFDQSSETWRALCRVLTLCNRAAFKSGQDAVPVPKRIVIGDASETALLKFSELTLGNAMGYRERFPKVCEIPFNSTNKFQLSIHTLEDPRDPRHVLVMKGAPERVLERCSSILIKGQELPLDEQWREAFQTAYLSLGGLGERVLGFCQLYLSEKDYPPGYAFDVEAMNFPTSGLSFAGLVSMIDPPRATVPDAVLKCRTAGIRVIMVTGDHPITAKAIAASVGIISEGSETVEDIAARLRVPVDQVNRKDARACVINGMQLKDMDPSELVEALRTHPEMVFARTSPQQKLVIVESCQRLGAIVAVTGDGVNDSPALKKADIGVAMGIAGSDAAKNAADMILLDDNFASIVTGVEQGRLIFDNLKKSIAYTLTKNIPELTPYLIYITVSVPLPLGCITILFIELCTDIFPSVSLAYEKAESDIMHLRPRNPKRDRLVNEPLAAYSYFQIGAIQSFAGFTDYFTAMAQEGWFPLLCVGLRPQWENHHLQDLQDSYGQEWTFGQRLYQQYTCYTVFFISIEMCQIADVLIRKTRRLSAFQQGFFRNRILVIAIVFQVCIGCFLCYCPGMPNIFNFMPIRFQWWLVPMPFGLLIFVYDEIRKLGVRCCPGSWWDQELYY
proton, potassium-adenosine triphosphatase (H^+,K^+-ATPase), sequence (P18434 whole entry partner): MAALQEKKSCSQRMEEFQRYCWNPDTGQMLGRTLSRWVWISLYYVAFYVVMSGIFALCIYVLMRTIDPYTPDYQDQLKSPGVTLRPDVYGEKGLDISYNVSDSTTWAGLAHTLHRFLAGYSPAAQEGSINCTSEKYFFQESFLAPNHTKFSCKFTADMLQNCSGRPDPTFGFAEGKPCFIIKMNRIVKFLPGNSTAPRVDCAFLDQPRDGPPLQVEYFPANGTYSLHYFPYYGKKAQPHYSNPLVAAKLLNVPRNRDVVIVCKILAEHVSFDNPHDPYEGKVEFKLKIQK

The first test addresses proton, potassium-adenosine triphosphatase (H^+,K^+-ATPase) (Sus scrofa (Pig), UniProt P19156). As to the kind of experiment: Proton potassium-adenosine triphosphatase (H+,K+-ATPase) inhibitory activity test. The class given is biochemical. The conditions noted are these: swine gastric mucous membrane microsomal fraction, pH 6.5, 37° C.; read-out: H^+/K^+-ATPase inhibitory activity (IC50). As for the experimental part:
Proton Potassium-adenosine Triphosphatase (H^+,K^+-ATPase) Inhibitory Activity Test
According to the method [Biochem. Biophys. Acta., 728, 31 (1983)] of Wallmark et al., a gastric mucous membrane microsomal fraction was prepared from the stomach of swine. First, the stomach was removed, washed with tap water, immersed in 3 mol/L brine, and the surface of the mucous membrane was wiped with a paper towel. The gastric mucous membrane was detached, chopped, and homogenized in a 0.25 mol/L saccharose solution (pH 6.8) containing 1 mmol/L EDTA and 10 mmol/L tris-hydrochloric acid using polytron (Kinematica). The obtained homogenate was centrifuged at 20,000×g for 30 min and the supernatant was centrifuged at 100,000×g for 90 min. The precipitate was suspended in 0.25 mol/L saccharose solution, superimposed on a 0.25 mol/L saccharose solution containing 7.5% Ficoll, and centrifuged at 100,000×g for 5 hr. The fraction containing the interface between the both layers was recovered, and centrifugally washed with 0.25 mol/L saccharose solution.
The obtained microsomal fraction was used as a proton, potassium-adenosine triphosphatase standard product.
To 40 μL of a 50 mmol/L HEPES-tris buffer (5 mmol/L magnesium chloride, 10 mmol/L potassium chloride, 10 μmol/L valinomycin, pH=6.5) containing 2.5 μg/mL (based on the protein concentration) of the enzyme standard product was added a test compound (5 μL) dissolved in a 10% aqueous dimethyl sulfoxide solution, and the mixture was incubated at 37° C. for 30 min. The enzyme reaction was started by adding 5 μL of a 2 mmol/L adenosine triphosphate tris salt solution (50 mmol/L HEPES-tris buffer (5 mmol/L magnesium chloride, pH 6.5)). The enzyme reaction was carried out at 37° C. for 20 min, and 15 μL of a malachite green solution (0.12% malachite green solution in sulfuric acid (2.5 mol/L), 7.5% ammonium molybdate and 11% Tween 20 were mixed at a ratio of 100:25:2) was added to quench the reaction. After allowing to stand at room temperature for 15 min, the resulting reaction product of inorganic phosphorus with malachite green was colorimetrically determined at a wavelength of 610 nm. In addition, the amount of the inorganic phosphoric acid in the reaction solution free of potassium chloride was measured in the same manner, which was subtracted from the inorganic phosphoric acid amount in the presence of potassium chloride to determine the proton, potassium-adenosine triphosphatase activity. The inhibitory rate (%) was determined from the activity value of the control and the activity values of various concentrations of the test compound, and the 50% inhibitory concentration (IC50) of the proton, potassium-adenosine triphosphatase was determined.
Take `CNCc1cc(-c2ccccc2F)n(S(=O)(=O)c2cccc(S(C)(=O)=O)c2)c1` [Example 161, 1-[5-(2-Fluorophenyl)-1-{[3-(methylsulfonyl)phenyl]sulfonyl}-1H-pyrrol-3-yl]-N-methylmethanamine hydrochloride]: the IC50 was 62 nM.

With `CNCc1cc(-c2ccccc2)n(S(=O)(=O)c2cccc(S(C)(=O)=O)c2)c1` [Example 140, N-Methyl-1-(1-{[3-(methylsulfonyl)phenyl]sulfonyl}-5-phenyl-1H-pyrrol-3-yl)methanamine hydrochloride], the IC50 came out at 78 nM.

As to `CNCc1cc(-c2ccccc2)n(S(=O)(=O)c2cc3ccccc3s2)c1` [Example 152, 1-[1-(1-Benzothien-2-ylsulfonyl)-5-phenyl-1H-pyrrol-3-yl]-N-methylmethanamine hydrochloride], the IC50 came out at 33 nM.

`CNCc1cc(-c2ccccc2F)n(S(=O)(=O)c2ccccc2F)c1` [Example 165, 1-{5-(2-Fluorophenyl)-1-[(2-fluorophenyl)sulfonyl]-1H-pyrrol-3-yl}-N-methylmethanamine hydrochloride]: the IC50 was 9 nM.

As to `CNCc1cc(-c2ccsc2)n(S(=O)(=O)c2ccccc2)c1` [Example 30, N-methyl-1-[1-(phenylsulfonyl)-5-(3-thienyl)-1H-pyrrol-3-yl]methanamine hydrochloride], the IC50 worked out at 4.2 nM.

Turning to `CNCc1cc(-c2ccccc2)n(S(=O)(=O)c2cccc(C(=O)NC)c2)c1` [Example 204, N-Methyl-3-({4-[(methylamino)methyl]-2-phenyl-1H-pyrrol-1-yl}sulfonyl)benzamide hydrochloride], the IC50 is 86 nM.

As to `CNCc1cc(-c2ccccc2C)n(S(=O)(=O)c2cccnc2)c1` [Example 220, N-Methyl-1-[5-(2-methylphenyl)-1-(pyridin-3-ylsulfonyl)-1H-pyrrol-3-yl]methanamine dihydrochloride], the IC50 was 36 nM.

For `CNCc1cc(-c2ccccc2)n(S(=O)(=O)c2ccsc2)c1` [Example 43, N-Methyl-1-[5-phenyl-1-(3-thienylsulfonyl)-1H-pyrrol-3-yl]methanamine hydrochloride], the IC50 amounted to 51 nM.

The test is the same for the next values; noted with them: swine gastric mucous membrane microsomal fraction, pH 6.5, 37° C.; read-out: IC50.
With `CN(C)Cc1cc(-c2ccccc2)n(S(=O)(=O)c2ccc(C(F)(F)F)cc2)c1` [Example 12, N,N-Dimethyl-1-(5-phenyl-1-{[4-(trifluoromethyl)phenyl]sulfonyl}-1H-pyrrol-3-yl)methanamine hydrochloride], the IC50 was 710 nM.

Turning to `CNCc1cc(-c2cccc(C)c2)n(S(=O)(=O)c2ccc(C)cc2)c1` [Example 7, N-Methyl-1-{5-(3-methylphenyl)-1-[(4-methylphenyl)sulfonyl]-1H-pyrrol-3-yl}methanamine hydrochloride], the IC50 was 91 nM.

For the compound `CNCc1cc(-c2ccccc2)n(S(=O)(=O)c2ccc(F)cc2C)c1` [Example 11, 1-{1-[(4-Fluoro-2-methylphenyl)sulfonyl]-5-phenyl-1H-pyrrol-3-yl}-N-methylmethanamine hydrochloride], the IC50 was found to be 51 nM.

The record behind these values is patent US10308605B2, “Proton pump inhibitors” (Takeda Pharmaceutical Company Limited, priority 2004, dated 2019).
